ChEMBL document CHEMBL1201862, “PubChem BioAssay data set” (2004)
Where a name gives a salt, the structure may show the parent alone. Calls of active or inactive are those of the source.

Key:
[1] = biological target: T1, Sentrin-specific protease 8 (Homo sapiens, UniProt Q96LD8); assay type: functional
T1 sequence (Q96LD8 whole entry): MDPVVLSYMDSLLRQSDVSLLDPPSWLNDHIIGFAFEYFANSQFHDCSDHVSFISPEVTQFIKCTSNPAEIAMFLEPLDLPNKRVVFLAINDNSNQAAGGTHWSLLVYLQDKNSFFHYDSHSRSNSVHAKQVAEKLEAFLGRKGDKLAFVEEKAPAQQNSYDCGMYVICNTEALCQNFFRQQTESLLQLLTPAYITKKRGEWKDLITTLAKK

[2] = biological target: T2, Aryl hydrocarbon receptor (Homo sapiens, UniProt P35869); assay: Luminescence-based cell-based high throughput dose response assay for activators of the Aryl Hydrocarbon Receptor (AHR). [Related pubchem assays: 2796 (Primary screen (AHR activators in singlicate)), 2845 (Confirmation screen (AHR activators in triplicate)), 434939 (Counterscreen (PXR activators in triplicate)), 2804 (Summary (AHR activators))]; assay type: ADME
T2 sequence (P35869 whole entry): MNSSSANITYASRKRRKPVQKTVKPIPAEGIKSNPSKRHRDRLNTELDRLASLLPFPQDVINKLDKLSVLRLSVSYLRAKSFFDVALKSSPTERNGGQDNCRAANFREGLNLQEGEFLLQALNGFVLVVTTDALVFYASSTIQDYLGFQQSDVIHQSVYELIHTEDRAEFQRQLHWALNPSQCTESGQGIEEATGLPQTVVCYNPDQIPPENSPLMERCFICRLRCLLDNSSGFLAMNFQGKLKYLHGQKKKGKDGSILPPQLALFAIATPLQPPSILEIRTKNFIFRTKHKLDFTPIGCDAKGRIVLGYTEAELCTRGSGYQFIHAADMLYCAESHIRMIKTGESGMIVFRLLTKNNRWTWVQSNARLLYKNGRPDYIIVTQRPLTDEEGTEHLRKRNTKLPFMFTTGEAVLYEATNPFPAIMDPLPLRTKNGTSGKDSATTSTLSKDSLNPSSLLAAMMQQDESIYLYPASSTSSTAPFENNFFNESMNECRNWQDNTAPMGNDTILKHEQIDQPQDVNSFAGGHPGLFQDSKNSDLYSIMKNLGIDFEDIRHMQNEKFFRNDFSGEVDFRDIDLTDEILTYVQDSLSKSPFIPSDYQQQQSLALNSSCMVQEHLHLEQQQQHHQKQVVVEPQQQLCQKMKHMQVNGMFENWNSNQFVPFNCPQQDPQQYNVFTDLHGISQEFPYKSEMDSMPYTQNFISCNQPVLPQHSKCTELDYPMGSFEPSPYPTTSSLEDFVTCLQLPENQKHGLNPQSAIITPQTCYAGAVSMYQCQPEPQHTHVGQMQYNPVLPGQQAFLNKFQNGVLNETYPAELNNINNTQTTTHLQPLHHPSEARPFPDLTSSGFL

[3] = Luminescence Cell-Based Dose Confirmation HTS to Identify Activators of 5'UTR Stem-Loop Driven Alpha-Synuclein mRNA Translation in H4 Neuroglioblastoma Cells. [Related pubchem assays: 1829 (Project Summary), 1814 (Primary HTS)]; assay type: functional
[4] = Luminescence Cell-Based Dose Response HTS to Identify Activators of Luciferase Translation or Activity in H4 […] Cells. [Related pubchem assays: 1829 (Project Summary), 1814 (Primary HTS)]; assay type: functional
[5] = biological target: T1, Sentrin-specific protease 8; assay type: functional; remark: listed apart in the source
H4 = assay: Luminescence Cell-Based Dose Response HTS to Identify Activators of 5'UTR Stem-Loop Driven Prion Protein mRNA Translation in H4 Neuroglioblastoma Cells. [Related pubchem assays: 1829 (Project Summary), 1814 (Primary HTS)]; assay type: functional; conditions: Homo sapiens
[6] = Shn3 3'UTR reporter inhibitors, dose response, cell-based, Clone20 osteoblasts, firefly luciferase, cherry-picked (AID 624132); assay type: functional;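 note: firefly luciferase luminescence from reporter carrying the Shn3 3'UTR in osteoblasts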
INS1 = assay: beta cell apoptosis inhibitors, cytokine rescue, dose response, luminescence, retest (AID 449756); assay type: functional, cell-based; conditions: Rattus norvegicus;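 note: cell death triggered by IL-1 beta plus TNF-alpha plus IFN-gamma mixture; protective hits raise ATP signal compared with cytokine alone wells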
[7] = biological target: Sphingosine 1-phosphate receptor 1 (Homo sapiens, UniProt P21453); assay type: functional;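 note: Tango beta-arrestin reporter U2OS cells stimulated with S1P near its EC80; inhibitor potency meaning antagonism of receptor activation by the natural agonist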
cells = assay type: functional
HEK293 [8] = assay: cells; conditions: Homo sapiens
[9] = biological target: T3, Replicative DNA helicase DnaB (Mycobacterium tuberculosis, UniProt P9WMR3); assay: DnaB intein splicing inhibitors, dose response, biochemical, cell-free fluorescence (AID 449749); assay type: functional
T3 sequence (P9WMR3 whole entry): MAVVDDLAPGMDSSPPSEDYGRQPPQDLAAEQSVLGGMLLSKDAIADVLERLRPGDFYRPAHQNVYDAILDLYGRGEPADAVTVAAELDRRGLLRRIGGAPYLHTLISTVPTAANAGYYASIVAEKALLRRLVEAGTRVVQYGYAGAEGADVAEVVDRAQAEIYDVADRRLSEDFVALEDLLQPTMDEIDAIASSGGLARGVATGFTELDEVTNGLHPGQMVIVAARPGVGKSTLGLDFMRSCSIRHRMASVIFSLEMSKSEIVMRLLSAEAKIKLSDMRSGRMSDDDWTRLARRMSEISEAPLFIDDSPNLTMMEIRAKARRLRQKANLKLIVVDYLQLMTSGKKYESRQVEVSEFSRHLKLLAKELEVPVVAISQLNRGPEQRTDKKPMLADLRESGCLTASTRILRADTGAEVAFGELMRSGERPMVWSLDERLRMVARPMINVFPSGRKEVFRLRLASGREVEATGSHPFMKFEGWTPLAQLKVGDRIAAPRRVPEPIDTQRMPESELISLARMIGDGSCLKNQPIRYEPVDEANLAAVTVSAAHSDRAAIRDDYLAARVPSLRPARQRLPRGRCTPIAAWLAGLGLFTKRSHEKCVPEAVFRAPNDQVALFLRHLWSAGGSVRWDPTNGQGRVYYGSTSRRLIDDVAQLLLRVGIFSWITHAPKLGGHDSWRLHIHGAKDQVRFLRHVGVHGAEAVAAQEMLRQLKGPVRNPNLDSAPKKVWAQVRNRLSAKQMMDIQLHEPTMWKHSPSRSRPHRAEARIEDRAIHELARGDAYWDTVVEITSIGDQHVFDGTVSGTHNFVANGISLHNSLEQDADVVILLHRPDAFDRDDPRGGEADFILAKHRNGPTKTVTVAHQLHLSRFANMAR

[10] = control 3'UTR Renilla luciferase suppression, dose response, counter-screen for Shn3 inhibitor project, cell-based, Clone20-Shn3RL, cherry-picked (AID 624133); assay type: functional
[11] = THP-1 cell cytotoxicity, dose response, cytotoxicity control for non-replicating M. tuberculosis project (AID 489025); assay type: functional
HEK293 [12] = assay: cells; conditions: Homo sapiens; remark: listed apart in the source
[13] = HepG2 cell cytotoxicity, dose response, cytotoxicity control for Shn3 inhibitor project, CellTiter-Glo, cherry-picked (AID 624134); assay type: functional, cell-based
[14] = Vero E6 cell cytotoxicity, dose response, cytotoxicity control for non-replicating M. tuberculosis project, secondary assay (AID 492998); assay type: functional, VeroE6; conditions: Vero C1008
Beta Lactamase = Beta Lactamase (Pseudomonas aeruginosa, UniProt Q932Y6); assay: beta-lactamase reporter inhibitor potency, dose response, artefact control for NOD2-RIPK2 interaction inhibitor project, BLA reporter cells, FRET fluorescence (AID 651552); assay type: functional, cell-based
Protein RecA = biological target: T4, Protein RecA (Mycobacterium tuberculosis, UniProt P9WHJ3); assay: Fluorescence Cell-Free Homogeneous Dose Retest to Identify Inhibitors of RecA-Intein Splicing Activity. [Related pubchem assays (depositor defined):AID2097, AID2223, AID489010, AID492950]; assay type: functional
T4 sequence (P9WHJ3 whole entry): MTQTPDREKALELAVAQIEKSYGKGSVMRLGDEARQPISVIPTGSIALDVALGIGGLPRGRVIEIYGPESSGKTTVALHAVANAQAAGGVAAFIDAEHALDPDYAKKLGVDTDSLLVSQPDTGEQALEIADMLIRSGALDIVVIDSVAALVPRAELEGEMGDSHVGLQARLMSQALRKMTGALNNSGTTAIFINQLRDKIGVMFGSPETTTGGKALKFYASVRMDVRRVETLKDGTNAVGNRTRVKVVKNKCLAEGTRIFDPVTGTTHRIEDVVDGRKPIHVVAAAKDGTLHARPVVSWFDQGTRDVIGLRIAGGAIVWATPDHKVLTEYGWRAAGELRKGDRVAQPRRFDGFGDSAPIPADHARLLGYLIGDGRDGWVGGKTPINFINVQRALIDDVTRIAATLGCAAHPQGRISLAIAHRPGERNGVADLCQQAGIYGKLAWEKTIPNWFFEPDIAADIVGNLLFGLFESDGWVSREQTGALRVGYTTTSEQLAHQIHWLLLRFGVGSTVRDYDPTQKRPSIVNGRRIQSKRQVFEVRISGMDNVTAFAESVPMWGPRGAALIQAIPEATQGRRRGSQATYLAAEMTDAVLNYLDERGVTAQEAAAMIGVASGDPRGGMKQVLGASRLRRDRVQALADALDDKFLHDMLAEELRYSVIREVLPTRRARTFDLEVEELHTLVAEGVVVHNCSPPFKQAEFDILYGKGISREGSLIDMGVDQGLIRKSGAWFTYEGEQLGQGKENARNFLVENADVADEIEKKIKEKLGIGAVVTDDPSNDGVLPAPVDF

[15] = Fluorescence-based cell-based high throughput dose response assay for inhibitors of the interaction of nucleotide-binding oligomerization domain containing 2 (NOD2) and the receptor-interacting serine-threonine kinase 2 (RIPK2).; assay type: functional; conditions: Homo sapiens
[16] = HepG2 cell cytotoxicity, dose response, cytotoxicity control for non-replicating M. tuberculosis project (AID 489018); assay type: functional; conditions: Mycobacterium tuberculosis
[17] = biological target: T5, Sphingosine 1-phosphate receptor 4 (Homo sapiens, UniProt O95977); assay: Fluorescence dose response cell-based high throughput screening assay for antagonists of the Sphingosine 1-Phosphate Receptor 4 (S1P4). [Related pubchem assays: 1524 (Confirmation in triplicates.), 1510 (Primary screen.)]; assay type: functional
T5 sequence (O95977 whole entry): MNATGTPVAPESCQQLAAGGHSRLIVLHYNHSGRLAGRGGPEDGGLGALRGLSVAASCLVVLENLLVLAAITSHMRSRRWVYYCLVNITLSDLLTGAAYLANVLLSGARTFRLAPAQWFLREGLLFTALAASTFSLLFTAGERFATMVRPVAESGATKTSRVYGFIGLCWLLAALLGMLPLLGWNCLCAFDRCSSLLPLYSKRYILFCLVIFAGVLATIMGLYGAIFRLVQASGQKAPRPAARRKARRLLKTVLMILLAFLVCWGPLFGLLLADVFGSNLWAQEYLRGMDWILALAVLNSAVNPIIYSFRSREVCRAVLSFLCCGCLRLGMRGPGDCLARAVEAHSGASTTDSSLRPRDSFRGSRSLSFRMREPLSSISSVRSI

[18] = biological target: Arf-GAP with SH3 domain, ANK repeat and PH domain-containing protein 1 (Homo sapiens, UniProt Q9ULH1); assay type: functional;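 note: biochemical fluorescence polarization dose–response screen measuring inhibition of ASAP1; ASAP1 GAP domain stimulating GTP hydrolysis by truncated human ARF1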
H9c2 = assay: cells; assay type: functional, cell-based; conditions: Rattus norvegicus, H9c2, Myocardium;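 note: confirmatory concentration-response retest of ultra-high-throughput screening hits for modulation of myocardial damage; cell death induced by hydrogen peroxide oxidative stress; compound pretreatment for 60 min then peroxide exposure for 2 h; potency is for protecting the cells against peroxide damage rather than for killing them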
Leucine aminopeptidase = biological target: T6, Leucine aminopeptidase (Plasmodium falciparum 3D7, UniProt Q8IL11); assay: P. falciparum M17LAP inhibitors, primary screen, biochemical, fluorogenic H-Leu-NHMec substrate, 1536-well (AID 1619); assay type: functional
T6 sequence (Q8IL11 whole entry): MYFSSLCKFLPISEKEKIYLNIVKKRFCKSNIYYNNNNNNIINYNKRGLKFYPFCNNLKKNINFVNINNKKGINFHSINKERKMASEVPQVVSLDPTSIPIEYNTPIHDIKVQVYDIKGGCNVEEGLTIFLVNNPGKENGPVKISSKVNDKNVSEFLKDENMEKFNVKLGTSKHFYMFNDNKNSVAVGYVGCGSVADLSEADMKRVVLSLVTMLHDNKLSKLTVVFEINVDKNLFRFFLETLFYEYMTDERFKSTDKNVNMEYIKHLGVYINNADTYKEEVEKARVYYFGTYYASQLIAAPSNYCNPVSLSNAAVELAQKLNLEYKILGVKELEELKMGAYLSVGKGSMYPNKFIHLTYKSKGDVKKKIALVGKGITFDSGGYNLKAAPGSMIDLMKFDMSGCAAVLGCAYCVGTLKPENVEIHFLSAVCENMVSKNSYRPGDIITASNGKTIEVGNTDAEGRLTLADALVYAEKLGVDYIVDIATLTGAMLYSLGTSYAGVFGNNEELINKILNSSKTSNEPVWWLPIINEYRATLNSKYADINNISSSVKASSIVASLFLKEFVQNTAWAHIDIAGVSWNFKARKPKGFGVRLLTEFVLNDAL

[19] = Counterscreen for inhibitors of Trypanosoma brucei methionyl tRNA synthetase (MetRS): Luminescence-based cell-based high throughput dose response assay to identify compounds that are cytotoxic to Jurkat human T lymphocyte cells.; assay type: functional
Mu-type opioid receptor = Mu-type opioid receptor (Homo sapiens, UniProt P35372); assay type: functional, cell-based;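 note: U2OS cells with beta-arrestin recruitment to OPRM1 by beta-gal complementation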
Sequence of Mu-type opioid receptor (P35372 whole entry): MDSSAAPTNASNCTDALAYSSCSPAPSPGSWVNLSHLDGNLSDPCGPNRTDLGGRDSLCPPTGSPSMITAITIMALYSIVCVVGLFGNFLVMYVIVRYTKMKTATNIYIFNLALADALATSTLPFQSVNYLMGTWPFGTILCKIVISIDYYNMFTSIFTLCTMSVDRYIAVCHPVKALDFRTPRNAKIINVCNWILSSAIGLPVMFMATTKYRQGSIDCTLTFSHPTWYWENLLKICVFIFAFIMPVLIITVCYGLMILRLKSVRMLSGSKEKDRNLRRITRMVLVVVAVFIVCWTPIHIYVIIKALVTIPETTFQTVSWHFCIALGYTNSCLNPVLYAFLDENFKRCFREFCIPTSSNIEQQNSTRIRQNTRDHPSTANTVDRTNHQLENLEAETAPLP

Sequence of Arf-GAP with SH3 domain, ANK repeat and PH domain-containing protein 1 (Q9ULH1 whole entry, the tested form may be a part): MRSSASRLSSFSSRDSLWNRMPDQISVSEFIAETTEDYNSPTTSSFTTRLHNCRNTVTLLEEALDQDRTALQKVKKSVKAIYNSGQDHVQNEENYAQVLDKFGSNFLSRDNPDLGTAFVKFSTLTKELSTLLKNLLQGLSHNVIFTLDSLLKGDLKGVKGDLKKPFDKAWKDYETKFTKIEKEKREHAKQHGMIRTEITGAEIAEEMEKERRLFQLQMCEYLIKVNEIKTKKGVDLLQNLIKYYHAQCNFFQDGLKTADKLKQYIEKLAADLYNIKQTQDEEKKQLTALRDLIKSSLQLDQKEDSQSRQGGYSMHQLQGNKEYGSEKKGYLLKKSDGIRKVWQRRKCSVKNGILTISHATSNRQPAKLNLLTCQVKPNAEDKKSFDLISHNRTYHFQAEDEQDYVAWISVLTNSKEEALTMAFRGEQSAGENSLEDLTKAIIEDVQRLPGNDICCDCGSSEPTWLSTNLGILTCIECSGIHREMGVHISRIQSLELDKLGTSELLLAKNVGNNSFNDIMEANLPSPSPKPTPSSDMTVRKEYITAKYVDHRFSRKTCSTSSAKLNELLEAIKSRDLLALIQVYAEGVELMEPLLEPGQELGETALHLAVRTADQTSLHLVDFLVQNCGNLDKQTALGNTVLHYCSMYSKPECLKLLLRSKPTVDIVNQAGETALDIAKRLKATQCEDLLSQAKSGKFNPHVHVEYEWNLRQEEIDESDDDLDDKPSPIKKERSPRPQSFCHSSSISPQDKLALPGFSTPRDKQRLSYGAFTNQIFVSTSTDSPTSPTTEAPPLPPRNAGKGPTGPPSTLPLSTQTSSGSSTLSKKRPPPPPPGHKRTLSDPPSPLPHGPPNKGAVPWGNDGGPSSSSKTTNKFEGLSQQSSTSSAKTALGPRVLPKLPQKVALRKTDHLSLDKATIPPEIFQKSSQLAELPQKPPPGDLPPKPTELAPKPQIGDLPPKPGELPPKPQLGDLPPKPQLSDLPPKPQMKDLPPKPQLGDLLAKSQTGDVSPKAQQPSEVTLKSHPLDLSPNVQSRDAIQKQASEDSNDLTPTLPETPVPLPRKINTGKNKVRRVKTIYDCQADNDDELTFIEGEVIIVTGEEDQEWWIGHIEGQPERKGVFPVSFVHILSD
Sequence of Beta Lactamase (Q932Y6 whole entry): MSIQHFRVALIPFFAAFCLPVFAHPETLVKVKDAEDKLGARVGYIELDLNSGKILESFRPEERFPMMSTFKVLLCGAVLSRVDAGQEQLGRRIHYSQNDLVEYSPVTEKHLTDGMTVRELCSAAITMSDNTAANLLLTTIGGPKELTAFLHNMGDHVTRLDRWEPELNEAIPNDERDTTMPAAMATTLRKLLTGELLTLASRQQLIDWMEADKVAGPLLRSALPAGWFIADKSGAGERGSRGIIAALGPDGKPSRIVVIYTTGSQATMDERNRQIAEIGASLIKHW
Sequence of Sphingosine 1-phosphate receptor 1 (P21453 whole entry): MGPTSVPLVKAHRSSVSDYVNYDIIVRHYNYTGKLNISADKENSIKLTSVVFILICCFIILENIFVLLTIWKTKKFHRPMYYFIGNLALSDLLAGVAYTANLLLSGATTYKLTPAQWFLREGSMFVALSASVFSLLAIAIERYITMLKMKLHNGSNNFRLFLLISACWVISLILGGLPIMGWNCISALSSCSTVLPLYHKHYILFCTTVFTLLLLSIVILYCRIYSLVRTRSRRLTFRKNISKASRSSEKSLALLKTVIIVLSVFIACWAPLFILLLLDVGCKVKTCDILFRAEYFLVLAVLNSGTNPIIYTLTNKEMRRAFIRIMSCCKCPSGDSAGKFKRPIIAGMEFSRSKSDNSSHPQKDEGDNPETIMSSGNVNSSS

O=C1c2ccccc2-c2nc3ccccc3nc21
IC50 [1]: 8.84 µM (active) | EC50 [2]: 1.22 µM (active) | EC50 [3]: 0.307 µM (active) | EC50 [4]: 42.2 µM (active) | IC50 [5]: 5.17 µM (active) | EC50 (H4): > 120 µM (not active)

CC1=NNC(=O)/C1=C\c1cn(-c2ccccc2)nc1-c1ccccc1
AC50 [6]: 8.42 µM (active) | AC50 (INS1): 7.76 µM (active) | IC50 [7]: 6.83 µM (active) | IC50 (cells): 20.6 µM (active) | EC50 (HEK293 [8]): > 59.7 µM (inactive) | AC50 [9]: 1.92 µM (active) | AC50 [10]: 9.3 µM (active) | CC50 [11]: 6.16 µM (active) | EC50 (HEK293 [12]): > 59.7 µM (inactive) | AC50 [13]: 8.9 µM (active) | CC50 [14]: 10.1 µM (active) | IC50 (Beta Lactamase): 49.8 µM (inactive) | EC50 (Protein RecA): 0.978 µM (active) | IC50 [15]: 4.43 µM (active) | CC50 [16]: 13 µM (active) | IC50 [17]: 2 µM (active)

c1ccc(-c2cc(-c3nnc4sc(-c5ccccn5)nn34)[nH]n2)cc1
IC50 [18]: 165 µM (inactive) | IC50 (H9c2): > 79 µM (inactive)

Cc1ccc(NC(=O)CSc2ncccc2C(=O)Oc2cccc([N+](=O)[O-])c2)cc1Cl
IC50 [18]: 45.7 µM (inactive) | IC50 (Leucine aminopeptidase): 32 µM (active)

N#Cc1ccccc1CSc1nc2cc(Br)c[nH]c-2n1
IC50 [19]: 83.3 µM (inactive)

CC(C)[C@@]1(NC(=O)[C@@H]2C[C@@H]3c4cccc5[nH]cc(c45)C[C@H]3N(C)C2)O[C@@]2(O)[C@@H]3CCCN3C(=O)[C@H](Cc3ccccc3)N2C1=O [DIHYDROERGOCRISTINE MESYLATE]
EC50 (Mu-type opioid receptor): 92.5 µM (inactive)
